Consider 7 compounds from patent publication US20240191211A1, “BIOLUMINESCENCE-TRIGGERED PHOTOCATALYTIC LABELING” (Promega Corporation, priority 2022, published 2024).

Where “and” joins values, the source holds several entries; their conditions need not be identical. Equal values may be shown once.

A short description of data set [1]: Absorbance profile of photoreactive-biotins. The format is physicochemical. As for the experimental part:
Absorbance profiles for 4 mM phenyl-diazirine-biotin and 20-fold lower concentration of phenyl-azide-biotin (i.e., 200 µM) in 8% or 1% DMSO, respectively, were monitored on a SPARK multimode plate reader (FIG. 20B).
Experiments were conducted during development of embodiments herein to explore structural modifications to the phenyl-azide moiety that could decrease the lifetime of its photogenerated intermediates thereby reducing light-dependent background and increasing labeling specificity. Modifications causing red shift absorbance and subsequently lower triplet state energy thereby enabling more efficient bioluminescence-triggered photocatalytic activation were also explored. […]
The structures of the vinyl-naphthyl-azide-biotins and vinyl-quinoline-azide-biotins are shown in FIG. 26A, and their syntheses are included in Example 13. Absorbance profiles for 200 μM activatable labels in 2% DMSO were monitored on a SPARK multimode plate reader (FIG. 26 B-C). […] The naphthyl-azide analogs were further evaluated for their capacity to undergo bioluminescence-triggered photocatalytic protein labeling as well as for their light-dependent, light-independent, and catalyst-independent backgrounds (FIG. 26D). […] To evaluate labeling efficiencies, samples were collected, resolved on SDS-PAGE, transferred to nitrocellulose membranes, and analyzed as described in Example 1. […]

Data set [2] deals with K562 cell lysate depleted of biotinylated proteins. In words: Photocatalytic protein labeling with azide-biotin analogs driven by HT178-cpNLuc-179:Ir-9049 in K562 lysate. The format is biochemical. Conditions: for light-independent background: 45 minutes incubation; for light-dependent background: LED 455 nm 10 minutes versus bioluminescence 20 minutes. The text has this: To evaluate labeling efficiency, samples were collected, resolved on SDS-PAGE, transferred to a nitrocellulose membrane, and analyzed as described in Example 1. Unlike diazirene, light independent as well as light-dependent background was apparent for both LED and bioluminescence. […] These longer-lived intermediates can diffuse further before being quenched by water resulting in overall greater labeling radius and increased light-dependent background.
The aryl-azide-biotin analogs were further evaluated for efficiency and specificity of bioluminescence-triggered photocatalytic protein labeling as well as light-independent background (FIG. 21D). […] Samples were then collected, resolved on SDS-PAGE, transferred to a nitrocellulose membrane, and analyzed as described in Example 1. […] In addition, several substitutions to the phenyl ring increased labeling specificity to different extent likely by impeding the generation-kinetics and/or lifetime of the reactive intermediates resulting with an overall smaller labeling radius.
Subsequently, LED-triggered photocatalytic labeling of the proximal HT178-cpNLuc-179 was detected for all three analogs albeit with high light-dependent background. […] In addition, lifetime of photogenerated reactive intermediates resulted with a range of labeling specificities that would be useful for different applications designed to label a specific protein versus a neighboring environment.
The structures of the vinyl-naphthyl-azide-biotins and vinyl-quinoline-azide-biotins are shown in FIG. 26A, and their syntheses are included in Example 13. Absorbance profiles for 200 μM activatable labels in 2% DMSO were monitored on a SPARK multimode plate reader (FIG. 26 B-C). […] The naphthyl-azide analogs were further evaluated for their capacity to undergo bioluminescence-triggered photocatalytic protein labeling as well as for their light-dependent, light-independent, and catalyst-independent backgrounds (FIG. 26D). […] Bioluminescence was induced upon treatment with 100 μM fluorofurimazine for 20 minutes. To evaluate labeling efficiencies, samples were collected, resolved on SDS-PAGE, transferred to nitrocellulose membranes, and analyzed as described in Example 1. […] Furthermore, a methyl substitution on the vinyl group designed to inhibit Michael addition reduced background, especially for 9615, and increased labeling specificity. This reduced background was generally associated with a blue-shifted absorbance relative to the equivalent vinyl-naphthyl-azide analog.

The next data set relates to FKBP-HiBiT. In words: Photocatalytic labeling upon complementation of FKBP-HiBiT with LgBiT-HaloTag:Ir-9049. The format is biochemical. Conditions: HEK293 cell lysate; LED, furimazine or fluorofurimazine. Here is the method:
HEK293 cell lysate with estimated expression of 2000 nM FKBP-HiBiT was serially diluted into control HEK293 cell lysate to generate 4× lysate solutions with expression levels of 960 nM, 480 nM, 240 nM, and […] while maintaining constant concentration of total proteins. […] Following treatment with 10× diazirine-biotin at a final concentration of […], the UV-transparent plates were subjected to 455 nm radiation at 0-3.2 W for 15 min (Efficiency Aggregators biophotoreactor), and the white plate were further treated for 30 minutes with either furimazine or fluorofurimazine at a final concentration of 100 µM while control wells remained untreated. Samples were then collected, resolved on SDS-PAGE, transferred to a nitrocellulose membrane, and analyzed as described in Example 1. Light-dependent labeling of both LgBiT-HaloTag and FKBP-HiBiT were detected upon radiation or treatment with either furimazine or fluorofurimazine.

Data set [3] has as its system K562 cell lysate depleted of biotinylated proteins. In words: Bioluminescence-triggered photocatalytic protein labeling with diazirine-biotin in K562 lysate. In kind it is biochemical. Here is the method: The two fusions orientations were further tethered to chloroalkane-catalyst conjugates and compared for their capacity to drive bioluminescence-triggered photocatalytic protein labeling (FIG. 16B). […] Bioluminescence was induced upon treatment with 10× fluorofurimazine at a final concentration of 100 µM while control wells remained untreated. Following a 15 minutes incubation, samples were collected, resolved on SDS-PAGE, transferred to a nitrocellulose membrane, and analyzed as described in Example 1. […]
Reactions comprising 100 μM diazirine-biotin, 0.1 mg/mL K562 cell lysate depleted of biotinylated proteins, and 60 nM conjugate were assembled in TBS pH 7.5 within wells of a white 96-well plate. […] Following a 15 minutes incubation, samples were collected, resolved on SDS-PAGE, transferred to a nitrocellulose membrane, and analyzed as described in Example 1. […]
This example summarizes the optimization of the bioluminescent photocatalytic system that provided an overall 900-fold increase in bioluminescence-triggered photocatalytic protein labeling (FIG. 18). […] Following a 20-minutes incubation, samples were collected, resolved on SDS-PAGE, transferred to a nitrocellulose membrane, and analyzed as described in Example 1 (FIG. 18A). […]

Another data set concerns DNA and RNA. Put plainly: LED-triggered singlet oxygen-dependent labeling of DNA and RNA. The format is biochemical. Conditions: compared to Ir-9049 driven activation of vinyl-naphthyl-azides and vinyl-quinoline-azides.

Experimental for DNA and RNA: Plates remained in the dark (control) or irradiated at 455 nm (2% LED; ˜1.6 W) for 20 minutes using Efficiency Aggregators biophotoreactor. To evaluate covalent crosslinking efficiencies, reactions were cleaned from non-crosslinked activatable labels using Zeba column (ThermoFisher) before being spotted on nitrocellulose membranes using a slot blot apparatus. Membranes were blocked with 5% BSA (Promega) in TBST for 1 hour at room temperature and then incubated overnight at 4° C. with anti-biotin antibody (Invitrogen) in TBST. Next day, membranes were washed three times with TBST and then incubated for an hour with a secondary anti-goat-HRP-antibody (Jackson laboratories). Following three washes in TBST, membranes were treated with ECL substrate (Promega) and scanned on the chemiluminescence channel to detect DNA or RNA labeled with biotin.

Take `C/C(=C\C(=O)NCCOCCOCCOCCOCCNC(=O)CCCC[C@@H]1SC[C@@H]2NC(=O)N[C@@H]21)c1ccc(N=[N+]=[N-])cc1` [Compound 9162]: the red shift absorbance in data set [1] (aryl-azide analogs compared to phenyl-azide-biotin 9069) was determined as 20 nm. Besides, in data set [2], the light-independent background entry was “significantly decreased” and the light-dependent background result is given as “highest light-dependent background”.

For `[N-]=[N+]=Nc1ccc(C(=O)NCCOCCOCCOCCOCCNC(=O)CCCC[C@@H]2SC[C@@H]3NC(=O)N[C@@H]32)c(O)c1` [Compound 9046], the light-independent background result in data set [2] is “significantly decreased”.

Turning to `[N-]=[N+]=Nc1ccc2cc(C(=O)NCCOCCOCCOCCOCCNC(=O)CCCC[C@@H]3SC[C@@H]4NC(=O)N[C@@H]43)ccc2c1` [Compound 9043], the “absorbance λmax” value in data set [1] (200 μM in 2% DMSO) was 255 nm and 305 nm. The light-independent background result in data set [2] is reported as “significantly decreased”.

`[N-]=[N+]=Nc1ccc(C(=O)NCCOCCOCCOCCOCCNC(=O)CCCC[C@@H]2SC[C@@H]3NC(=O)N[C@@H]32)cc1` [Compound 9069]: the “labeling of proximal model protein and background” value in data set [2] (LED or bioluminescence, NanoLuc-HaloTag:Ir-9049 or HT178-cpNLuc-179:Ir-9049) is reported as “relatively high background”.

For `Nc1cccc(-c2cn3c(=O)c(Cc4ccco4)nc-3c(Cc3ccccc3F)[nH]2)c1F` [fluorofurimazine], in the data set on FKBP-HiBiT, the “labeling of LgBiT-HaloTag and FKBP-HiBiT” value is reported as “Highest labeling”. For the same compound, the “increase in total light output” value in data set [3] (filtered luminescence 610 nm/LP accumulated over 20 minutes, versus furimazine) was 5 fold. In data set [3] (relative to preceding optimization step, 20 minutes), the “increase in protein labeling” value is on record as 5 fold.

For the compound `O=C(NCCOCCOCCCCCCCl)OCCOCCOCCOCCNC(=O)c1ccc2c(c1)C(=O)OC21c2ccc(O)c(Br)c2Oc2c1ccc(O)c2Br` [PS-9850], the “nucleic acid labeling via singlet oxygen generation” value with DNA and RNA was “lower efficiencies”.

As for `C/C(=C\C(=O)NCCOCCOCCOCCOCCNC(=O)CCCC[C@@H]1SC[C@@H]2NC(=O)N[C@@H]21)c1ccc(N=[N+]=[N-])c(C#N)c1` [Compound 9422, N-((E)-18-(4-azido-3-cyanophenyl)-16-oxo-3,6,9,12-tetraoxa-15-azanonadec-17-en-1-yl)-5-((3aS,4S,6aR)-2-oxohexahydro-1H-thieno[3,4-d]imidazol-4-yl)pentanamide], in data set [2], the light-independent background entry is reported as “significantly decreased” and the light-dependent background result is “significantly reduced light-dependent background”.
